Source: publication PMC10709440, “High-throughput ligand profile characterization in novel cell lines expressing seven heterologous insect olfactory receptors for the detection of volatile plant biomarkers” (Scientific Reports, 2023)
Where two headings read alike, the source gives them in different places.

Columns and labels:
[1] = biological target: T1, Drosophila OR10a (Drosophila melanogaster, UniProt Q9VYZ1); assay: Calcium ion fluorescence (GCaMP6) assay, OR10a stable HEK293 cell line; format: cell-based; conditions: for activation at 1 µM / activation at 10 µM / activation at 100 µM: 50 μM VUAA1 = 1, responses not exceeding 0.05 considered 0; for OR10a response (VUAA1-normalized) at 1 μM / OR10a response (VUAA1-normalized) at 10 μM / OR10a response (VUAA1-normalized) at 100 μM: OR10a cell line; for OR10a response (VUAA1-normalized) at 1 μM: VOC concentration 1 μM; for OR10a response (VUAA1-normalized) at 10 μM: VOC concentration 10 μM; for OR10a response (VUAA1-normalized) at 100 μM: VOC concentration 100 μM
T1 construct: expressed in transfected cells
T1 sequence (Q9VYZ1 1-406): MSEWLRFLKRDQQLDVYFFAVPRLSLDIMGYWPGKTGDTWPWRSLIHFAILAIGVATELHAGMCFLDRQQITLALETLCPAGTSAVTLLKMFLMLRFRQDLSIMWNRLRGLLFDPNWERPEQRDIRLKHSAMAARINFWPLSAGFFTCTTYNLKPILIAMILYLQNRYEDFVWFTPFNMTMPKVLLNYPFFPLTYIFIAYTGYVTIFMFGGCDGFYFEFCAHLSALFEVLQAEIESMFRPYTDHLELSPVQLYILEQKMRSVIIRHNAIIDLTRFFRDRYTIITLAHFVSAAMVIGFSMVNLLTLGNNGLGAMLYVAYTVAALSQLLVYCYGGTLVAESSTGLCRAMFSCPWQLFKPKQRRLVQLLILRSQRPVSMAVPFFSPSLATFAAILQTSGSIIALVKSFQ
T1 sequence (Q9VNB5 1-486 partner): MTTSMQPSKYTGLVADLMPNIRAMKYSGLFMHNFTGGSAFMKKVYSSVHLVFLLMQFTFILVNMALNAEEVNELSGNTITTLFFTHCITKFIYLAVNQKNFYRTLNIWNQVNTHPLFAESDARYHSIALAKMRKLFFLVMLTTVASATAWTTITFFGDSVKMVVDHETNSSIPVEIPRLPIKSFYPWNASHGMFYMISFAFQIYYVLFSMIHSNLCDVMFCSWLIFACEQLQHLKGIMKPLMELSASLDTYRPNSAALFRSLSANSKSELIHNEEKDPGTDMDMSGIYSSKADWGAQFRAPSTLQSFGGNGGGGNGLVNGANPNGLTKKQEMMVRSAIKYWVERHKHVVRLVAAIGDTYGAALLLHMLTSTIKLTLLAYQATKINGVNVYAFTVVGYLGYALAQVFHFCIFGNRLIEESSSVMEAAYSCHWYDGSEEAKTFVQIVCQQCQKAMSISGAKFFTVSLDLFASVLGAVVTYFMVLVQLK
In short: (§1)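 Responses are VUAA1-normalized ΔF: each VOC-evoked calcium signal, (FMAX−F0)/F0 over 30 s after injection, divided by the same line's mean 50 µM VUAA1 response. Cells were doxycycline-induced HEK293 with GCaMP6 and the cognate Drosophila OR, in HEPES buffer pH 7.3; ligands tested 0.01–100 μM.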

[2] = biological target: T2, Drosophila OR13a (Drosophila melanogaster, UniProt Q9VXL0); assay: Calcium ion fluorescence (GCaMP6) assay, OR13a stable HEK293 cell line; format: cell-based; conditions: for activation at 1 µM: HEK293, read-out: OR13a Average response (VUAA1-normalized), 1 μM VOC; for activation at 1 µM / activation at 10 µM / activation at 100 µM: 50 μM VUAA1 = 1, responses not exceeding 0.05 considered 0; for activation at 10 µM: HEK293, read-out: OR13a Average response (VUAA1-normalized), 10 μM VOC; for activation at 100 µM: HEK293, read-out: OR13a Average response (VUAA1-normalized), 100 μM VOC; for OR13a response (VUAA1-normalized) at 1 μM / OR13a response (VUAA1-normalized) at 10 μM / OR13a response (VUAA1-normalized) at 100 μM: OR13a cell line; for OR13a response (VUAA1-normalized) at 1 μM: VOC concentration 1 μM; for OR13a response (VUAA1-normalized) at 10 μM: VOC concentration 10 μM; for OR13a response (VUAA1-normalized) at 100 μM: VOC concentration 100 μM
T2 construct: expressed in transfected cells
T2 sequence (Q9VXL0 1-418): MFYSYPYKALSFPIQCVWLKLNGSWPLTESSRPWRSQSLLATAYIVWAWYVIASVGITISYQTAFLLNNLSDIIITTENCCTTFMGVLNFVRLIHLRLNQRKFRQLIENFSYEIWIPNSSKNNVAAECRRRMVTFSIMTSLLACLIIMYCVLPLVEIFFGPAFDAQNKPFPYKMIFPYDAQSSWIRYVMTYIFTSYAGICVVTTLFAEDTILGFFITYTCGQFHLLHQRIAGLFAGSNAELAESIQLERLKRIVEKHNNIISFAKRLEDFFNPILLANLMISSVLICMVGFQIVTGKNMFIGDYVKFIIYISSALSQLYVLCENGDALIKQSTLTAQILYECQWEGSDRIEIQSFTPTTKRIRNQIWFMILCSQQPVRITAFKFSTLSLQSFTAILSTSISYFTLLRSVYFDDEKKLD
T2 sequence (Q9VNB5 1-486 partner): T1 sequence (Q9VNB5 1-486 partner)
In short: as §1

[3] = HEK293, 1 μM VOC, read-out: OR10a Average response (VUAA1-normalized)
[4] = HEK293, 10 μM VOC, read-out: OR10a Average response (VUAA1-normalized)
[5] = HEK293, 100 μM VOC, read-out: OR10a Average response (VUAA1-normalized)
[6] = ligand concentration 1 (unit not given), threshold 0.05, below shown as 0
[7] = ligand concentration 10 (unit not given), threshold 0.05, below shown as 0
[8] = ligand concentration 100 (unit not given), threshold 0.05, below shown as 0
[9] = HEK293, read-out: OR10a Average response (VUAA1-normalized), 1 μM VOC
[10] = HEK293, read-out: OR10a Average response (VUAA1-normalized), 10 μM VOC
[11] = HEK293, read-out: OR10a Average response (VUAA1-normalized), 100 μM VOC
[12] = ligand concentration 1 (unit not given), 0.05 threshold, values below shown as 0
[13] = ligand concentration 10 (unit not given), 0.05 threshold, values below shown as 0
[14] = ligand concentration 100 (unit not given), 0.05 threshold, values below shown as 0
[15] = ligand concentration 1 (unit not given), […]
[16] = 100 µM, OR10a clone G5, single plate 2019.12.05

Row | Compound | activation at 1 µM [1, 3] | activation at 10 µM [1, 4] | activation at 100 µM [1, 5] | OR10a response (VUAA1-normalized) at 1 μM [1] | OR10a response (VUAA1-normalized) at 10 μM [1] | OR10a response (VUAA1-normalized) at 100 μM [1] | activation at 1 µM [2] | activation at 10 µM [2] | activation at 100 µM [2] | OR13a response (VUAA1-normalized) at 1 μM [2] | OR13a response (VUAA1-normalized) at 10 μM [2] | OR13a response (VUAA1-normalized) at 100 μM [2] | activation at 1 µM [1, 9] | activation at 10 µM [1, 10] | DF norm AVERAGE OR10a [1, 12] | DF norm AVERAGE OR10a [1, 13] | DF norm AVERAGE OR10a [1, 14] | DF norm AVERAGE OR13a [2, 12] | DF norm AVERAGE OR13a [2, 13] | DF norm AVERAGE OR13a [2, 14] | further results
1 | CCCOC(C)=O [propyl acetate] | 0% | 9% | 0% | 0.00 | 0.09 | 0.00 | 0% | 0% | 0% | 0.00 | 0.00 | 0.00 | – | – | – | – | – | – | – | – | DF norm AVERAGE OR10a [1, 6]: 0; DF norm AVERAGE OR10a [1, 7]: 0.08914; DF norm AVERAGE OR10a [1, 8]: 0; DF norm AVERAGE OR13a [2, 6]: 0; DF norm AVERAGE OR13a [2, 7]: 0; DF norm AVERAGE OR13a [2, 8]: 0
2 | C=C1CCC2(C(C)C)CC12 (stereo not drawn) [sabinene] | – | – | – | 0.00 | 0.00 | 0.00 | 0% | 0% | 0% | 0.00 | 0.00 | 0.00 | 0% | 0% | – | – | – | – | – | – | activation at 100 µM [1, 11]: 3.23%; DF norm AVERAGE OR10a [1, 6]: 0; DF norm AVERAGE OR10a [1, 7]: 0; DF norm AVERAGE OR10a [1, 8]: 0; DF norm AVERAGE OR13a [2, 6]: 0; DF norm AVERAGE OR13a [2, 7]: 0; DF norm AVERAGE OR13a [2, 8]: 0
3 | C=Cc1ccccc1 [styrene] | – | – | – | 0.00 | 0.00 | 0.14 | 3% | 0% | – | 0.00 | 0.00 | 0.00 | 3% | 0% | 0 | 0 | 0.144 | 0 | 0 | 0 | activation at 100 µM [1, 11]: 14%
4 | CCCCCCCCCCCCCC [tetradecane] | 11% | 4.22% | 8% | 0.11 | 0.00 | 0.08 | 2.63% | 1.68% | 0% | 0.00 | 0.00 | 0.00 | – | – | – | 0 | – | 0 | 0 | 0 | DF norm AVERAGE OR10a [1, 15]: 0.1095; DF norm AVERAGE OR10a ([1]; ligand concentration 100 (unit not given), […]): 0.08392
5 | Cc1ccccc1 [toluene] | – | – | – | 0.00 | 0.00 | 0.07 | 0% | 0% | 0% | 0.00 | 0.00 | 0.00 | 3% | 0% | 0 | 0 | 0.07043 | 0 | 0 | 0 | activation at 100 µM [1, 11]: 7%
6 | CCCCCCCCCCC [undecane] | 0% | 0% | 0% | 0.00 | 0.00 | 0.00 | 0% | 0% | 0% | 0.00 | 0.00 | 0.00 | – | – | 0 | 0 | 0 | 0 | 0 | 0 | –
7 | CC/C=C\CCOC(C)=O [z3-hexenyl acetate] | 14% | 0% | 0% | – | – | – | 0% | 2.61% | 9% | – | – | – | – | – | – | 0 | 0 | 0 | 0 | 0.09283 | DF norm, all technical replicates [1, 16]: 0; DF norm, outlier technical replicates removed [1, 16]: 0; DF, outlier technical replicates removed [1, 16]: 0; DF, all technical replicates ([1]; 100 µM, OR10a clone G5, single plate 2019.12.05, xc+0.1%DMSO): 0; DF norm AVERAGE OR10a [1, 15]: 0.1361
8 | CC1=CCC23CC1C(C)(C)C2CCC3C (stereo not drawn) [α-funebrene] | 0% | 0% | 2.42% | 0.00 | 0.00 | 0.00 | 0% | 0% | 0% | 0.00 | 0.00 | 0.00 | – | – | 0 | 0 | 0 | 0 | 0 | 0 | –
